Reference: patent publication US20220105150A1, “AMPHIPATHIC ALPHA-HELICAL ANTIMICROBIAL PEPTIDES TREAT INFECTIONS BY GRAM-NEGATIVE PATHOGENS” (priority 2019, published 2022)
In brackets after ≈: the same amount, converted by molar mass.

Key:
[1] = Helical structure by circular dichroism spectroscopy; type: physicochemical; settings: for Aqueous pH 7 [θ]222: 100 mM KCl, 50 mM Na2HPO4/NaH2PO4, pH 7.0; for Aqueous pH 7 [θ]222 / 50% TFE [θ]222: 222 nm; for 50% TFE [θ]222: aqueous buffer containing 50% trifluoroethanol; for Δ[Θ]222 TFE-aqueous: difference 50% TFE minus aqueous; for % Helix Induced: increase in molar ellipticity in the presence of 50% TFE; for Aqueous pH 7 % Helix: relative to molar ellipticity of the peptide in 50% TFE
[2] = tested on: Acinetobacter baumannii isolates resistant to classical antibiotics; type: cell-based; settings: for MICGM: geometric mean over 20 strains; for MIC 101887: strain 101887 (lower line); for MIC 961997: strain 961997 (lower line); for MIC 963618: strain 963618 (lower line); for MIC 964304: strain 964304 (lower line); for MIC 977751: strain 977751 (lower line); for MIC 981653: strain 981653 (lower line); for MIC 1002956: strain 1002956 (lower line); for MIC 1007660: strain 1007660 (lower line); for MIC 1010282: strain 1010282 (lower line); for MIC 1035166: strain 1035166 (lower line)
[3] = Peptide hydrophobicity by RP-HPLC retention time; type: physicochemical; settings: RP-HPLC retention time at pH 2, 25° C.
Experimental: Column: Zorbax 300 SB-C8, 150×2.1 mm ID, 5-μm particle size, 300-Å pore size; conditions, linear AB gradient (0.25% acetonitrile/min) at a flow-rate of 0.3 ml/min, where eluent A was 20 mM aq. TFA and eluent B was 20 mM TFA in acetonitrile and the temperature was 25° C. The sequences of the ten peptides (with seven peptides containing Lys specificity determinants at positions 13 and 16 of the non-polar face (see FIG. 1) are shown in Table 1G. Peptide denotions in FIG. 4 have been abbreviated from those shown in Table 1G; for example, D87(Lys1-6 Arg-1) has been shortened to D87(6 Arg-1). For the peptides without specificity determinants, we have added A13/A16 to the peptide denotions. It is interesting that the Dab containing peptides are more hydrophilic than the Dap containing peptides even thought the Dab containing peptides have an additional carbon atom per Dab residue.
Retention behavior in reversed-phase chromatography is an excellent method to represent overall peptide hydrophobicity. […] All ten peptides used in this study could be readily separated by reversed-phase chromatography with the seven peptides with specificity determinants being much more hydrophilic than the three control peptides without specificity determinants (FIG. 4). […]

| SMILES | Aqueous pH 7 [θ]222 [1] | 50% TFE [θ]222 [1] | Δ[Θ]222 TFE-aqueous [1] | % Helix Induced [1] [%] | Aqueous pH 7 % Helix [1] [%] | MICGM [2] [µM] | MIC 101887 [2] [µM] | MIC 961997 [2] [µM] | MIC 963618 [2] [µM] | MIC 964304 [2] [µM] | MIC 977751 [2] [µM] | MIC 981653 [2] [µM] | MIC 1002956 [2] [µM] | MIC 1007660 [2] [µM] | MIC 1010282 [2] [µM] | MIC 1035166 [2] [µM] | Hydrophobicity pH 2 tR [3] [min] |
| --- | --- | --- | --- | --- | --- | --- | --- | --- | --- | --- | --- | --- | --- | --- | --- | --- | --- |
| CC(=O)N[C@H](CCCCN)C(=O)N[C@H](CC(C)C)C(=O)N[C@H](CN)C(=O)N[C@H](CO)C(=O)N[C@H](CC(C)C)C(=O)N[C@H](CC(C)C)C(=O)N[C@H](CN)C(=O)N[C@@H](C(=O)N[C@H](CC(C)C)C(=O)N[C@H](CO)C(=O)N[C@H](CN)C(=O)N[C@H](C)C(=O)N[C@H](C)C(=O)N[C@H](C)C(=O)N[C@H](C)C(=O)N[C@H](C)C(=O)N[C@H](CC(C)C)C(=O)N[C@H](CN)C(=O)N[C@@H](C(=O)N[C@H](CC(C)C)C(=O)N[C@H](CC(C)C)C(=O)N[C@H](CN)C(=O)N[C@H](C)C(=O)N[C@H](CC(C)C)C(=O)N[C@H](CO)C(=O)N[C@H](CN)C(N)=O)[C@H](C)O)[C@H](C)O [D105(K13A/K16A)-(Lys^1-6Dap-1), Ac-KL(Dap)SLL(Dap)TLS(Dap)AAAAAL(Dap)TLL(Dap)ALS(Dap)-amide] | 9,577 mdeg cm^2/(dmol*res) | 18,038 mdeg cm^2/(dmol*res) | 8,461 mdeg cm^2/(dmol*res) | 47 | 53 | 2.0 | 3.2 (≈ 8 µg/mL) | 3.2 (≈ 8 µg/mL) | 1.6 (≈ 4 µg/mL) | 3.2 (≈ 8 µg/mL) | 0.8 (≈ 2 µg/mL) | 1.6 (≈ 4 µg/mL) | 1.6 (≈ 4 µg/mL) | 3.2 (≈ 8 µg/mL) | 1.6 (≈ 4 µg/mL) | 3.2 (≈ 8 µg/mL) | 172.3 |
| CC(=O)N[C@H](CCCCN)C(=O)N[C@H](CC(C)C)C(=O)N[C@H](CCN)C(=O)N[C@H](CO)C(=O)N[C@H](CC(C)C)C(=O)N[C@H](CC(C)C)C(=O)N[C@H](CCN)C(=O)N[C@@H](C(=O)N[C@H](CC(C)C)C(=O)N[C@H](CO)C(=O)N[C@H](CCN)C(=O)N[C@H](C)C(=O)N[C@H](C)C(=O)N[C@H](C)C(=O)N[C@H](C)C(=O)N[C@H](C)C(=O)N[C@H](CC(C)C)C(=O)N[C@H](CCN)C(=O)N[C@@H](C(=O)N[C@H](CC(C)C)C(=O)N[C@H](CC(C)C)C(=O)N[C@H](CCN)C(=O)N[C@H](C)C(=O)N[C@H](CC(C)C)C(=O)N[C@H](CO)C(=O)N[C@H](CCN)C(N)=O)[C@H](C)O)[C@H](C)O [D86(K13A/K16A)-(Lys^1-6Dab-1), Ac-KL(Dab)SLL(Dab)TLS(Dab)AAAAAL(Dab)TLL(Dab)ALS(Dab)-amide] | 2,308 mdeg cm^2/(dmol*res) | 18,731 mdeg cm^2/(dmol*res) | 16,423 mdeg cm^2/(dmol*res) | 88 | 12 | 0.9 | 0.5 (≈ 1.29 µg/mL) | 0.8 (≈ 2.07 µg/mL) | 0.8 (≈ 2.07 µg/mL) | 1.5 (≈ 3.87 µg/mL) | 3.1 (≈ 8.01 µg/mL) | 0.4 (≈ 1.03 µg/mL) | 0.8 (≈ 2.07 µg/mL) | 0.8 (≈ 2.07 µg/mL) | 0.8 (≈ 2.07 µg/mL) | 0.8 (≈ 2.07 µg/mL) | 158.3 |
